Laboratory results from ChEMBL document CHEMBL5352492, “Application of deep generative model for design of Pyrrolo[2,3-d] pyrimidine derivatives as new selective TANK binding kinase 1 (TBK1) inhibitors” (Eur J Med Chem, 2023).

Key:
[1] = biological target: T1, Serine/threonine-protein kinase TBK1 (Homo sapiens) (UniProt Q9UHD2); assay: Inhibition of TBK1 (unknown origin) incubated at 100 nM for 1 hr in presence of ATP by FRET based Z'-Lyte assay relative to control
T1 sequence (whole entry): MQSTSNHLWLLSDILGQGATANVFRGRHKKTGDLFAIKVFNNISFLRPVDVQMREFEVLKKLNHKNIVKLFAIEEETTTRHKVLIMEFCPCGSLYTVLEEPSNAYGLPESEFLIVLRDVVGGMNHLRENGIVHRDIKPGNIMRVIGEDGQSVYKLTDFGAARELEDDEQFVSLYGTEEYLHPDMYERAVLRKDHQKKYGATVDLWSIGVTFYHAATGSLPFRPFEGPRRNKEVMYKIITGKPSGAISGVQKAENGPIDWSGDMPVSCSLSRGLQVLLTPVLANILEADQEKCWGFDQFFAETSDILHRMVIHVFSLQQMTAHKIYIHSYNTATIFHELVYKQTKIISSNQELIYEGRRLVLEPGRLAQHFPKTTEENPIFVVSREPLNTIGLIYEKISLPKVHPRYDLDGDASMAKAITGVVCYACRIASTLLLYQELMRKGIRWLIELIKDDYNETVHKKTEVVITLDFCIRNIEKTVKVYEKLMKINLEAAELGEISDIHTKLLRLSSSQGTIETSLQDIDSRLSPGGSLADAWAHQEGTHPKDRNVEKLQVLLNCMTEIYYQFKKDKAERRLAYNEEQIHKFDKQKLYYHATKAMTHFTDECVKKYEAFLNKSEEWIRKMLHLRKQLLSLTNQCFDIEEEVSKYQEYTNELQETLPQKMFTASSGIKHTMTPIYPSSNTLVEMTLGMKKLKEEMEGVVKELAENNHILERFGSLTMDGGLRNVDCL

[2] = biological target: T1, Serine/threonine-protein kinase TBK1 (Homo sapiens); assay: Inhibition of TBK1 (unknown origin) incubated at 1000 nM for 1 hr in presence of ATP by FRET based Z'-Lyte assay relative to control
[3] = biological target: T1, Serine/threonine-protein kinase TBK1 (Homo sapiens); assay: Inhibition of TBK1 (unknown origin) incubated at 10 nM for 1 hr in presence of ATP by FRET based Z'-Lyte assay relative to control
[4] = biological target: T2, Serine/threonine-protein kinase TBK1 (Homo sapiens, UniProt Q9UHD2); assay: Inhibition of TBK1 (unknown origin) incubated for 1 hr in presence of ATP by FRET based Z'-Lyte assay
T2 sequence (Q9UHD2 whole entry): T1 sequence (whole entry)

SMILES	inhibition [1]	inhibition [2]	inhibition [3]	IC50 [4]
O=C(NCCCN1C(=O)Cc2cnc(Nc3cccc(CN4CCOCC4)c3)nc21)C1CCC1	< 0%	0.6%	< 0%	–
O=C(C1CCC1)N1CCC(n2ccc3cnc(Nc4cccc(CN5CCOCC5)c4)nc32)C1 (stereo unspecified)	< 0%	< 0%	< 0%	–
Cc1cn(CCCNC(=O)C2CCC2)c2nc(Nc3cccc(CN4CCOCC4)c3)ncc12	22.8%	78.7%	< 0%	–
O=C(NCCCn1cc(Br)c2cnc(Nc3cccc(CN4CCOCC4)c3)nc21)C1CCC1	37.1%	84.4%	1.33%	–
CN1CCN(Cc2cccc(Nc3ncc4ccn(CCCNC(=O)C5CCC5)c4n3)c2)CC1	44.5%	72.6%	-3.2%	53.6 nM
O=C(NCc1cccc(-n2ccc3cnc(Nc4cccc(CN5CCOCC5)c4)nc32)c1)C1CCC1	15.7%	72.8%	< 0%	–
O=C(NCCCn1ncc2cnc(Nc3cccc(CN4CCOCC4)c3)nc21)C1CCC1	< 0%	29%	< 0%	–
O=C(NCCCn1cc(Cl)c2cnc(Nc3cccc(CN4CCOCC4)c3)nc21)C1CCC1	55.8%	91%	9.6%	–
O=C(Nc1cccc(Cn2ccc3cnc(Nc4cccc(CN5CCOCC5)c4)nc32)c1)C1CCC1	< 0%	< 0%	< 0%	–
N#Cc1cn(CCCNC(=O)C2CCC2)c2nc(Nc3cccc(CN4CCOCC4)c3)ncc12	< 0%	26.4%	< 0%	–
